Series [1] in a line: Solubility of crystal form I in common solvents. It is filed as physicochemical. The following applies: ambient temperature; for solubility: thermodynamic from solid. The method, then: The solubility of the crystal form I in 11 common solvents at ambient temperature was tested. In the experiment, the crystal form I was formulated into standard solutions of different concentrations using 50% acetonitrile as solvent according to the following table, and injected to the HPLC instrument. The peak area was recorded and the standard curve was plotted, and the curve equation: y=11.30762x, R^2=0.99998, which has a good linear correlation in a range of 4.9 μg/ml˜499 μg/ml was obtained. 10-80 mg of crystal form I was weighed into 0.5-10 ml of different solutions in the following table to prepare a saturated solution, sonicated for 3-5 min, dispersed evenly and then taken out, centrifuged at 12000 rpm for 5 min. The supernatant was drawn and diluted at a certain multiple, injected to the HPLC, the peak area was recorded, the sample concentration was calculated, and the pH of undiluted samples was determined.

Series [2] in a line: Hygroscopicity experiment (DVS). It is filed as physicochemical. The source says:
The Dynamic Vapor Sorption (DVS) curve was acquired on the DVS Intrinsic of Surface Measurement Systems.
The DVS test results of the crystal form A and the crystal form B-1 were shown in FIG. 26 and FIG. 27, respectively.
The DVS test results of the crystal form C, crystal form D-2, crystal form E, and crystal form F were shown in FIG. 28, FIG. 29, FIG. 30, and FIG. 31.

The next series has as its system NIH-3T3 cells. The series is described as follows: Cytotoxicity in normal cell line NIH-3T3 (MTT assay). Type of series: cell-based. The method, then:
The MTT assay procedure and steps were carried out as well known to those skilled in the art, and all the reagents used in the methods were commercially available.
The cells in logarithmic growth phase were digested with 0.25% EDTA trypsin (Gibco, 25200-056) and resuspended in fresh medium. 90 μL of the cell suspension was inoculated into a 96-well cell culture plate (BD Faclon 353072) with a suitable cell density and cultured at 37° C. under 5% CO2. After the cells adhered, 10 μL of the test compound at different concentrations (0.0046-10 μM, 8 concentration points) was added and incubated for another 72 h. 10 μL of MTT (5 mg/mL PBS solution) (Sigma, M5655) was added to react for 4 h. The absorbance at 492 nm was measured by using Thermo Scientific Multiskan MK3 microplate reader and IC50 was calculated using XLFIT 5.0 software (UK IDBS).
For orientation: Tetrazolium assays rely on reduction of a dye to a coloured formazan, in cell work by metabolically active cells.

Series [3] can be described thus: Solubility experiment in 0.1M HCl, buffers and water. It is filed as physicochemical. The conditions noted are these: ambient temperature; for solubility at 30 min: thermodynamic from solid. The procedure:
The solubilities of the following four kinds of salt and free base sample in 0.1M HCl, pH 4.5 buffer, pH 6.8 buffer, and water were tested at ambient temperature. In the test, the calibration curves of free base and four kinds of salt were plotted. 3 mg of solid samples of free base and four kinds of salt were weighed, respectively, and then 1 ml of the solvent was added, centrifuged after 30 min ultrasound. The supernatant was taken, and injected through the membrane, and the solubility was tested.

Series [4] is described as follows: Metabolism stability assay in liver microsomes. Type of series: in vitro ADME, mouse. The conditions noted are these: liver microsomal metabolism in mice. The procedure: Buffer A: 1 L solution of 100 mM potassium dihydrogen phosphate containing 1 mM EDTA (Sigma, V900157-100G) was prepared. Buffer B: 1 L solution of 100 mM dipotassium hydrogen phosphate containing 1 mM EDTA was prepared. Buffer C: 700 mL of buffer B was taken out and titrated with buffer A to pH 7.4.
2.1 10 μl of 10 mM compound to be tested and 10 μl of 10 mM ketanserin were taken out and 190 μl of pure acetonitrile was added to each of them to prepare 500 μM compound to be tested and ketanserin, respectively.
2.2 20 μl (20 mg/mL) of liver microsomes (XENOTECH, H0610) stock solution was added to 513.4 μl of buffer C on wet ice. 0.75 mg/mL liver microsomal solution was obtained.
2.3 1.5 μl of each of the above-mentioned compound to be tested and ketanserin solution was added to 498.5 μl of liver microsomal solution (0.7 5 mg/mL) respectively on wet ice. 1.5 μM mixed solution of compound to be tested and 1.5 μM mixed solution of ketanserin were obtained. […]
2.10 The sample was diluted with pure water in accordance with the ratio of 1:1 and detected by LC/MS. […]
Wherein, the K value and the proportional factor were calculated by those skilled in the art according to the methods described in the prior art and contained in the instructions of the liver microsome product.
(In general: Microsomes from liver hold many membrane-bound enzymes, among them those of drug oxidation.)

Another series concerns the target T1, PI3K-α (p110α/p85α) (Homo sapiens, UniProt P42336).
T1 construct: purchased Invitrogen PV4788
Briefly: Determination of PI3K kinase activity (ADP Transcreener fluorescence polarization), PI3K-α. It is filed as biochemical. The following applies: compared with BKM-120. The procedure:
The inhibition of PI3K kinase activity by the compound to be tested was determined by the following method. The working concentration of each component in the 25 μL enzyme reaction system was: p110α/p85α 3 ng (or p110β/p85α 60 ng, or p110δ/p85α 90 ng, or p110γ 100 ng), ATP 10 μM, PIP2: PS (Invitrogen PV5100) 30 μM and the DMSO concentration was 2% after addition of the compound to be tested.
The compound to be tested was gradiently diluted 3 times (0.00046-1 μM, 8 concentration points) with 10% DMSO. 5 μL of the compound to be tested was added to each well of a 96-well plate (Greiner 675076) in duplicate. […] 10 μL of ATP/PIP2: PS and 10 μL of the PI3K enzyme working solution were added to each well in a 96-well plate. The plate was shaken and mixed uniformly, and then incubated at 25° C. for 1 hour. […] After completion of the enzyme reaction, 25 μL of ADP assay solution (1% 100×ADP tracer, 0.79% ADP antibody and 10% 10× reaction stop solution) was added and incubated at 25° C. for 1 hour. Fluorescence polarization value [mP] of each well was measured with a Perkin Elmer Victor X5 Fluorescent Microplate. The ADP concentration [ADP] was calculated from the ADP/ATP standard curve and the IC50 values were calculated using the XLFit software.

From patent publication US10544137B2, “PI3K inhibitor, and pharmaceutically acceptable salt, polycrystalline form, and application thereof” (SHANGHAI HAIYAN PHARMACEUTICAL TECHNOLOGY CO., LTD., priority 2016, dated 2020) come the findings set out here.

Converted amounts (≈) assume the structure as drawn. Read-outs that look alike come from different tables or passages of the source.

T1 sequence (P42336 whole entry): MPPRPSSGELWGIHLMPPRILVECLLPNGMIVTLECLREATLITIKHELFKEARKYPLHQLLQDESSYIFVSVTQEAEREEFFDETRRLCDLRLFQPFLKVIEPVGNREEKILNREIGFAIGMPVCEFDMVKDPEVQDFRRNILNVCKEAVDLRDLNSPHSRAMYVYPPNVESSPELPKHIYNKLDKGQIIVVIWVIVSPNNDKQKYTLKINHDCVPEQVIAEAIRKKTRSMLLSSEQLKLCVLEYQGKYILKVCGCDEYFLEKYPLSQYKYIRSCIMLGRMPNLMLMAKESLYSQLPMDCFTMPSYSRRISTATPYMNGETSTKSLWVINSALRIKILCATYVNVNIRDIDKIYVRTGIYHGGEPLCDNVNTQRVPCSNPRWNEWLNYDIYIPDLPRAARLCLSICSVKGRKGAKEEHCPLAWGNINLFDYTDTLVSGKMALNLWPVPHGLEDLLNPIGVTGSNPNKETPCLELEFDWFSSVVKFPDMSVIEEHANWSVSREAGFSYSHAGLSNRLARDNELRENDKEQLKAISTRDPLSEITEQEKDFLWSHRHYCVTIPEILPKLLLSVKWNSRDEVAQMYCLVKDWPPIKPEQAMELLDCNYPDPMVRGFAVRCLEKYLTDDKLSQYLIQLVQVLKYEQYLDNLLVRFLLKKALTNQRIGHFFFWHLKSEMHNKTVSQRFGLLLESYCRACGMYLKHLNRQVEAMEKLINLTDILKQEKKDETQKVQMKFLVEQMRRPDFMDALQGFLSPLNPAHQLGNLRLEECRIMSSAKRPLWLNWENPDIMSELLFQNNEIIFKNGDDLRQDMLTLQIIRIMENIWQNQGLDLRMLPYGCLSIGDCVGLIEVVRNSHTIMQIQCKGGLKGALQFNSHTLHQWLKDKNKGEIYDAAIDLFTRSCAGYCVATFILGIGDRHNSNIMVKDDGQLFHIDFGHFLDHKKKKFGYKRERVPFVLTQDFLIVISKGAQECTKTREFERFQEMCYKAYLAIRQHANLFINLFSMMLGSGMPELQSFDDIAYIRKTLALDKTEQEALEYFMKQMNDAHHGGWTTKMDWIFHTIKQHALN
T1 sequence (P27986 whole entry partner): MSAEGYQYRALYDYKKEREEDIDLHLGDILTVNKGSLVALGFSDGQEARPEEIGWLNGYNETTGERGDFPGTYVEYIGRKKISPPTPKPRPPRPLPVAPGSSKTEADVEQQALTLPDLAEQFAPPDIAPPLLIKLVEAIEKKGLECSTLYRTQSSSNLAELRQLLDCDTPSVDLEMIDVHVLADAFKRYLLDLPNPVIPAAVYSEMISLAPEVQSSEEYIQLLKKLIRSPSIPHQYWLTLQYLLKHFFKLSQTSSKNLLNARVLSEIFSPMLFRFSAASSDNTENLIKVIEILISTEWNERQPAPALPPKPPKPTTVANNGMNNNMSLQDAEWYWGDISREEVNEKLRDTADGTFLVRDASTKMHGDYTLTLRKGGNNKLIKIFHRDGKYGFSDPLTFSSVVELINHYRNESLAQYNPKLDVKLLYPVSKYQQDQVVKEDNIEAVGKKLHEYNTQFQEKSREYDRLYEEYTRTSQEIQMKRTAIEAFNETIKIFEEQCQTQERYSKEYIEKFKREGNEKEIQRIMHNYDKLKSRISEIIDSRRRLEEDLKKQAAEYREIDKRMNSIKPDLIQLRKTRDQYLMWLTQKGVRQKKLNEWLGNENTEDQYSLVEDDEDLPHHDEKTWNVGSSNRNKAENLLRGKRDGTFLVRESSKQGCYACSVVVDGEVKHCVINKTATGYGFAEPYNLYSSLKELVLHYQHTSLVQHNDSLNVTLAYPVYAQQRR

For `CS(=O)(=O)C1(c2cc(-c3cnc(N)cc3Cl)nc(N3CCOCC3)n2)CC1` [crystal form I, 4-chloro-5-(6-(1-(methylsulfonyl)cyclopropyl)-2-morpholinopyrimidin-4-yl)pyridin-2-amine], the “Concentration” value was found to be 10998 µg/mL in series [1] (50% acetonitrile); 28464 µg/mL in series [1] (acetone); 13724 µg/mL in series [1] (acetonitrile); 4680 µg/mL in series [1] (ethanol); 12441 µg/mL in series [1] (ethyl acetate); 1837 µg/mL in series [1] (isopropanol). The “Concentration” value came to 9459 µg/mL in series [1] (methanol), 1044 µg/mL in series [1] (methyl tert-butyl ether), 78135 µg/mL in series [1] (tetrahydrofuran) and 185 µg/mL in series [1] (water). In addition, the solubility is 11000 µg/mL (≈ 26.8 mM) in series [1] (aqueous with cosolvent or surfactant or cyclodextrin, 50% acetonitrile); 28500 µg/mL (≈ 69.4 mM) in series [1] (organic solvent or mixture, acetone); 13700 µg/mL (≈ 33.5 mM) in series [1] (organic solvent or mixture, acetonitrile); greater than 4680 µg/mL in series [1] (organic solvent or mixture, ethanol); 12400 µg/mL (≈ 30.4 mM) in series [1] (organic solvent or mixture, ethyl acetate); greater than 1840 µg/mL in series [1] (organic solvent or mixture, isopropanol). The solubility in series [1] (organic solvent or mixture, methanol) was greater than 9460 µg/mL; in series [1] (organic solvent or mixture, methyl tert-butyl ether), greater than 1040 µg/mL; in series [1] (organic solvent or mixture, tetrahydrofuran), 78100 µg/mL (≈ 191 mM); in series [1] (water), 185 µg/mL (≈ 0.451 mM). Further, in series [2] (DVS, 25° C.), the “hygroscopicity (in words)” value was “almost no hygroscopicity”. The compound also yielded a water absorbed in series [2] (humidity increased to 90% RH at 25° C.) of 0.084%.
`CS(=O)(=O)C1(c2cc(-c3cnc(N)cc3Cl)nc(N3CCOCC3)n2)CC1` [Compound of formula X, 4-chloro-5-(6-(1-(methylsulfonyl)cyclopropyl)-2-morpholinopyrimidin-4-yl)pyridin-2-amine]: in the series with NIH-3T3 cells, the “cytotoxicity in normal cell lines” value is “relatively low cytotoxicity”. Moreover, in series [3] (0.1M HCl, listed as Free base), the “Solubility (mg/mL) 0.1M HCl” value is on record as greater than 2.973 mg/mL. In addition, the solubility at 30 min in series [3] (pH 4.5 buffer, pH 4.5, aqueous buffer, pH 4.5 buffer, read-out: Solubility (mg/mL) pH 4.5) worked out at 0.025 mg/mL; in series [3] (pH 6.8 buffer, pH 6.8, aqueous buffer, pH 6.8 buffer, read-out: Solubility (mg/mL) pH 6.8), 0.015 mg/mL. For the same compound, the “Solubility (mg/mL) H2O” value in series [3] (water, listed as Free base) is 0.016 mg/mL. Further, in series [4], the Clearance is 108.9 mL/min/kg. The “increase of inhibitory activity against PI3K-α kinase versus BKM-120” value on PI3K-α (p110α/p85α) was “about 10 times”.
